According to US7211597B2, “Substituted pyrazolyl compounds for the treatment of inflammation” (priority 2001, dated 2007):

Target: T1, IKK heterodimer (rhIKK1/IKK2) (Homo sapiens, UniProt O14920+O15111)
T1 construct: made in house; host or cells: baculovirus-infected insect cells (SF9)
T1 sequence (O14920 1-756): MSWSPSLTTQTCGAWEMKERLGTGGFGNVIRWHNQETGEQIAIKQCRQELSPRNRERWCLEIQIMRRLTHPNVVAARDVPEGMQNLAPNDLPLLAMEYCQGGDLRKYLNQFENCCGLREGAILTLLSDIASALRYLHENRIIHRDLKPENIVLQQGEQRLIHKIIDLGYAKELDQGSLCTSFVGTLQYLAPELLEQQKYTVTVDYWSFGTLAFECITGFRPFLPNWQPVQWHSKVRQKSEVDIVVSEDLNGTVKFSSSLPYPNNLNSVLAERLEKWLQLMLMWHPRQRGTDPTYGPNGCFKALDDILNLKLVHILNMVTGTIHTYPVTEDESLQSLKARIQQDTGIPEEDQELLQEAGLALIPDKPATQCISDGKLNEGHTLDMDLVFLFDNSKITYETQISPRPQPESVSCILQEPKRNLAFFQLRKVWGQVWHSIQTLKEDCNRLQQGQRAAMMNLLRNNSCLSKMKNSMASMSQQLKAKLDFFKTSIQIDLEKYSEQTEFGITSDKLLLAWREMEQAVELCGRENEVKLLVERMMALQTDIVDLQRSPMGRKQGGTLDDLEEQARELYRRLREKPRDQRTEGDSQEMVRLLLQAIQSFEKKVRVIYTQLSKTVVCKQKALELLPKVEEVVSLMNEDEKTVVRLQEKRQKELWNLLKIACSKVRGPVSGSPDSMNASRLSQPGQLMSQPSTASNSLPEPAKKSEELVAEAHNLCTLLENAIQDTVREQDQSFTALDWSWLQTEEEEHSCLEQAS
T1 sequence (O15111 1-745): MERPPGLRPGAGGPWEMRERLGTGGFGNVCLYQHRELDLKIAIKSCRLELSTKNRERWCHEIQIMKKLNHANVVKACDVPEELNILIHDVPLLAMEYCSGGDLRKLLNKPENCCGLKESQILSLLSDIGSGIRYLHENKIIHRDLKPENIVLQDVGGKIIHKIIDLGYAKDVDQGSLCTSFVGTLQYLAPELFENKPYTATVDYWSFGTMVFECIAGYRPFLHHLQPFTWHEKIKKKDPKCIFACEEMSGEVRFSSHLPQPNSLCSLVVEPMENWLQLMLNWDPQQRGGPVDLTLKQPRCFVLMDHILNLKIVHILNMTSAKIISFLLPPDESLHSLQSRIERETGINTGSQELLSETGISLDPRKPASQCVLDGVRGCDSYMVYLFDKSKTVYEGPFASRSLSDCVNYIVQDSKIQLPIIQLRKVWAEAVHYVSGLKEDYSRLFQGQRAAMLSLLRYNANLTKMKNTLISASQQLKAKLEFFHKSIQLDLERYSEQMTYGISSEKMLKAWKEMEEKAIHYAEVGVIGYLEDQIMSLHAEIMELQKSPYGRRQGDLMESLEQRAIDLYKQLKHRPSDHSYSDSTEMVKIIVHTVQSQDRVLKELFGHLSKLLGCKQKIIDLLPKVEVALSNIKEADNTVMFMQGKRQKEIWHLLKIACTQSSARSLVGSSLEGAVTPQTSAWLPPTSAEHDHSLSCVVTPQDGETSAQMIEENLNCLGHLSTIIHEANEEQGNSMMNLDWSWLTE
Assay: IKK heterodimer resin enzyme assay
Assay type: biochemical
Conditions: Table 1; read-out: HetD (IKK heterodimer assay values expressed as IC50)
Text: cDNAs of human IKK1 and IKK2 were amplified by reverse transcriptase-polymerase chain reaction from human placental RNA (Clonetech). hIKK1 was subcloned into pFastBac HTa (Life Technologies) and expressed as N-terminal His6-tagged fusion protein. The hIKK2 cDNA was amplified using a reverse oligonucleotide primer which incorporated the peptide sequence for a FLAG-epitope tag at the C-terminus of the IKK2 coding region (DYKDDDDKD). The hIKK2:FLAG cDNA was subcloned into the baculovirus vector pFastBac. The rhIKK2 ([…]) mutant was constructed in the same vector used for wild type rhIKK2 using a QuikChange™ mutagenesis kit (Stratagene). Viral stocks of each construct were used to infect insect cells grown in 40L suspension culture. […] Cell lysates were stored at −80° C. until purification of the recombinant proteins was undertaken as described below.
Isolation of rhIKK1/IKK2 Heterodimer
The heterodimer enzyme was produced by coinfection in a baculovirus system (FLAG IKK2/IKK1 His; MOI=0.1 and I=72 hrs). Infected cells were centrifuged and the cell pellet (10.0 g) was suspended in 50 ml of buffer A. The protein suspension was microfluidized and centrifuged at 100,000×g for 45 min. Imidazole was added to the supernatant to a final concentration of 10 mM. The protein was allowed to bind 25 ml of Ni-NTA resin by mixing for 2 hrs. The protein-resin slurry was poured into a 25 ml column and washed with 250 ml of buffer A containing 10 mM imidazole followed by 125 ml of buffer A containing 50 mM imidazole. Buffer A, containing 300 mM imidazole, was then used to elute the protein. A 75 ml pool was collected and NP-40 was added to a final concentration of 0.1%. The protein solution was then dialyzed against buffer B. The dialyzed heterodimer enzyme was then allowed to bind to 25 ml of anti-FLAG M2 agarose affinity gel overnight with constant mixing. The protein-resin slurry was then centrifuged for 5 min at 2,000 rpm. The supernatant was collected and the resin re-suspended in 100 ml of buffer C containing 0.1% NP-40. The resin was washed with 375 ml of buffer C containing 0.1% NP-40. The protein-resin was poured into a 25 ml column and the enzyme eluted using buffer B containing FLAG peptide. Enzyme fractions (100 ml) were collected and concentrated to 20 ml using an Amicon membrane with molecular weight cut-off of 30 kDa. Bovine serum albumin was added to the concentrated enzyme to final concentration of 0.1%. The enzyme was then aliquoted and stored at −80° C.
IKK Heterodimer Resin Enzyme Assay
IKK heterodimer kinase activity was measured using a biotinylated IκBα peptide (Gly-Leu-Lys-Lys-Glu-Arg-Leu-Leu-Asp-Asp-Arg-His-Asp-Ser32-Gly-Leu-Asp-Ser36-Met-Lys-Asp-Glu-Glu) (American Peptide Co.). 20 ul of the standard reaction mixture contained 5 μM biotinylated IκBα peptide, 0.1 μCi/reaction [γ-^33P] ATP (Amersham) (about 1×10^5 cpm), 1 μM ATP (Sigma), 1 mM DTT (Sigma), 2 mM MgCl2 (Sigma), 2 mM MnCl2 (Sigma), 10 mM NaF (Sigma), 25 mM Hepes (Sigma) buffer, pH 7.6 and 20 μl enzyme solution and 10 μl inhibitor in a final volume of 50 μl. After incubation at 25° C. for 30 min, 150 μl resin (Dowex anion-exchange resin AG1X8 200-400 mesh) in 900 mM formate, pH 3.0 was added to each well to stop the reaction. Resin was allowed to settle for one hour and 50 ul of supernatant was removed to a Micolite-2 flat bottom plate (Dynex). 150 μl of scintillation fluid (Microscint 40) (Packard) was added to each well. Incorporation of [γ-^33P] ATP was measured using a Top-Count NXT (Packard).

Row | SMILES | IC50
1 | CCOC(=O)c1nn(-c2ccc(OOSN)cc2)c2c1SCc1ccccc1-2 [Example 9, ethyl 1-{4-[(aminothio)peroxy]phenyl}-1,5-dihydroisothiochromeno[4,3-c]pyrazole-3-carboxylate] | > 100 µM
2 | NSOOc1ccc(-n2nc(C(N)=O)c3c2-c2ccccc2CS3)cc1 [Example 10, 1-{4-[(aminothio)peroxy]phenyl}-1,5-dihydroisothiochromeno[4,3-c]pyrazole-3-carboxamide] | > 100 µM
3 | NSOOc1ccc(-n2nc(C(N)=O)c3c2-c2ccc4c(c2CS3)OCO4)cc1 [Example 11, 8-{4-[(aminothio)peroxy]phenyl}-4,8-dihydro[1,3]dioxolo[7,8]isothiochromeno[4,3-c]pyrazole-6-carboxamide] | > 100 µM
4 | CCOC(=O)c1nn(-c2ccc(S(N)(=O)=O)cc2)c2c1CNc1ccccc1-2 [Example 12, ethyl 1-[4-(aminosulfonyl)phenyl]-4,5-dihydro-1H-pyrazolo[4,3-c]quinoline-3-carboxylate] | > 100 µM
5 | CCOC(=O)c1nn(-c2ccc(S(N)(=O)=O)cc2)c2c1CN(S(=O)(=O)c1ccc(C)cc1)c1ccccc1-2 [Example 14, ethyl 1-[4-(aminosulfonyl)phenyl]-5-[(4-methylphenyl)sulfonyl]-4,5-dihydro-1H-pyrazolo[4,3-c]quinoline-3-carboxylate] | > 100 µM
6 | Cc1ccc(S(=O)(=O)N2Cc3c(C(N)=O)nn(-c4ccc(S(N)(=O)=O)cc4)c3-c3ccccc32)cc1 [Example 15, 1-[4-(aminosulfonyl)phenyl]-5-[(4-methylphenyl)sulfonyl]-4,5-dihydro-1H-pyrazolo[4,3-c]quinoline-3-carboxamide] | > 100 µM
